Measured values from PubChem BioAssay (NCI).
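Each compound was tested at five concentrations against cells in 96-well plates for 48 hours. Here, GI50 denotes the concentration required for 50% inhibition of growth. TGI denotes the concentration required for complete inhibition of growth.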

What was measured:
Assay in all cases: NCI anticancer screen, dose series, 48 h
OVCAR-3 ovarian = test system: OVCAR-3 ovarian
SN12C renal = test system: SN12C renal
786-0 renal = test system: 786-0 renal
UACC-257 melanoma = test system: UACC-257 melanoma
TK-10 renal = test system: TK-10 renal
BT-549 breast = test system: BT-549 breast
HS 578T breast = test system: HS 578T breast
RXF 393 renal = test system: RXF 393 renal
KM20L2 colon = test system: KM20L2 colon
XF 498 CNS = test system: XF 498 CNS

| SMILES | GI50 (OVCAR-3 ovarian) | TGI (OVCAR-3 ovarian) | GI50 (SN12C renal) | TGI (SN12C renal) | GI50 (786-0 renal) | TGI (786-0 renal) | GI50 (UACC-257 melanoma) | TGI (UACC-257 melanoma) | GI50 (TK-10 renal) | TGI (TK-10 renal) | GI50 (BT-549 breast) | TGI (BT-549 breast) | GI50 (HS 578T breast) | TGI (HS 578T breast) | GI50 (RXF 393 renal) | TGI (RXF 393 renal) | TGI (KM20L2 colon) | TGI (XF 498 CNS) |
| --- | --- | --- | --- | --- | --- | --- | --- | --- | --- | --- | --- | --- | --- | --- | --- | --- | --- | --- |
| CC(C)(C)C(=O)c1c(C(F)(F)F)n([O-])c2cc(Cl)c(Cl)cc2[n+]1=O | 0.125 µM | 0.363 µM | 0.778 µM | 2.09 µM | 0.466 µM | 0.882 µM | 1.28 µM | 2.86 µM | 0.842 µM | 2.26 µM | 0.769 µM | 2.11 µM | 0.16 µM | 0.554 µM | 0.438 µM | 0.909 µM | – | – |
| O=c1cc(-c2ccccc2)oc2cc(OCCCCCN3CCOCC3)cc(O)c12 | > 100 µM | > 100 µM | > 100 µM | > 100 µM | 30 µM | > 100 µM | > 100 µM | > 100 µM | 51.4 µM | > 100 µM | 77.5 µM | > 100 µM | 41.3 µM | > 100 µM | 16.8 µM | 46.1 µM | – | – |
| OC(CN1CCCC2CCCCC21)c1cc2ccccc2c2ccccc12 (stereo not given) | 2.82 µM | 8.54 µM | 3.38 µM | 13.4 µM | 1.84 µM | 3.6 µM | 1.96 µM | 4.73 µM | 2.3 µM | 7.66 µM | 1.54 µM | 4.06 µM | 2.37 µM | 7.46 µM | 1.71 µM | 3.59 µM | – | – |
| Cc1ccnc2c(NC(C)CCCN)cc(O)c(O)c12 (stereo not given) | 2.45 µM | 7.24 µM | 2.86 µM | 13 µM | 71.2 µM | > 100 µM | 22.3 µM | 55.5 µM | 47.7 µM | > 100 µM | 36.1 µM | > 100 µM | 6.26 µM | 43.1 µM | 32.3 µM | > 100 µM | – | – |
| CC(C)c1[nH]nc2c(NCc3ccc(-c4ccccn4)cc3)nc(SCCN(C)C)nc12 | 0.0754 µM | 10.9 µM | < 0.0199 µM | 12.3 µM | 0.0767 µM | 6.06 µM | 0.017 µM | 0.0826 µM | 0.0456 µM | 11.9 µM | 0.0194 µM | 0.217 µM | 0.0271 µM | 9.4 µM | < 0.0136 µM | 0.0354 µM | – | – |
| O=C(NCc1ccco1)C1CCN(S(=O)(=O)c2ccc(Cl)cc2)CC1 | > 100 µM | > 100 µM | > 100 µM | > 100 µM | > 100 µM | > 100 µM | > 100 µM | > 100 µM | > 100 µM | > 100 µM | > 100 µM | > 100 µM | > 100 µM | > 100 µM | > 100 µM | > 100 µM | – | – |
| CNCC(=O)NC(CO)C(=O)NC(CO)C(=O)NC1C(C(N)=O)OC(n2ccc(N)nc2=O)C(O)C1O (stereo not given) | 8.43 µg/mL | 29.6 µg/mL | 9.89 µg/mL | > 50 µg/mL | 12.5 µg/mL | > 50 µg/mL | 13.7 µg/mL | > 50 µg/mL | 11 µg/mL | > 50 µg/mL | 7.25 µg/mL | 25.3 µg/mL | 1.21 µg/mL | 4.42 µg/mL | 6.4 µg/mL | 35.4 µg/mL | – | – |
| COc1cccc2c(SCC(=O)Nc3ccccc3-c3ccccc3NC(=O)CSc3c4ccccc4nc4c(OC)cccc34)c3ccccc3nc12 | – | > 100 µM | – | > 100 µM | – | > 100 µM | – | – | – | > 100 µM | – | – | – | – | – | > 100 µM | > 100 µM | > 100 µM |
| CSc1ccc(NC(=O)Nc2cc(C)ccn2)cc1 | – | > 100 µM | – | > 100 µM | – | > 100 µM | – | > 100 µM | – | > 100 µM | – | > 100 µM | – | > 100 µM | – | > 100 µM | – | – |
| COC(=O)C12C34C=CC5(CCC6(C=CC1(CC3)O6)C52C(=O)OC)O4 (stereo not given) | – | – | – | > 100 µM | – | > 100 µM | – | > 100 µM | – | > 100 µM | – | – | – | – | – | > 100 µM | > 100 µM | > 100 µM |
| NC(=O)C(=O)C1C(=O)N(c2ccccc2)N=C1N (stereo not given) | – | > 100 µM | – | > 100 µM | – | > 100 µM | – | > 100 µM | – | > 100 µM | – | – | – | – | – | – | > 100 µM | > 100 µM |
| CC1=NN(c2cccc(Cl)c2)C(=O)/C1=C\C=C\c1ccccc1 | 2.18 µM | 4.4 µM | 2.44 µM | 7.53 µM | 2.16 µM | 4.65 µM | 2.13 µM | 7.26 µM | 3.17 µM | 9.05 µM | 1.64 µM | 3.17 µM | 1.65 µM | 9.61 µM | 2.12 µM | 3.92 µM | – | – |
| CCn1cc(C(=O)N/N=C/c2cccs2)c(=O)c2cc(F)c(N3CCNC(C)C3)c(F)c21 (stereo not given) | 1.8 µM | 3.35 µM | 1.55 µM | 2.88 µM | 1.8 µM | 3.38 µM | 1.8 µM | 3.43 µM | 1.72 µM | 3.25 µM | 12.3 µM | 36.9 µM | 14.1 µM | 35.9 µM | 1.47 µM | 3 µM | – | – |
| COC(=O)c1ccc(C(=O)OC)c2nc3cc(Cl)ccc3nc12 | – | > 100 µM | – | > 100 µM | – | > 100 µM | – | > 100 µM | – | > 100 µM | – | – | – | – | – | – | > 100 µM | > 100 µM |
| C=CCC(N[C@H](CO)c1ccccc1)c1ccccn1 (stereo not given in full) | > 100 µM | > 100 µM | > 100 µM | > 100 µM | > 100 µM | > 100 µM | > 100 µM | > 100 µM | > 100 µM | > 100 µM | > 100 µM | > 100 µM | > 100 µM | > 100 µM | > 100 µM | > 100 µM | – | – |
| CN(C)N=Nc1cccc(C(N)=O)c1 | – | > 100 µM | – | > 100 µM | – | > 100 µM | – | – | – | > 100 µM | – | – | – | – | – | > 100 µM | > 100 µM | > 100 µM |
| CCCCCCCCC(C)CCCCCCCCC(=O)OCC(COP(=O)([O-])OCC[N+](C)(C)C)OC(=O)CCCCCCCCC(C)CCCCCCCC (stereo not given) | – | > 100 µM | – | > 100 µM | – | > 100 µM | – | > 100 µM | – | > 100 µM | – | – | – | – | – | > 100 µM | > 100 µM | – |
